This passage reports IC50 and EC50 results from patent publication US9139532B2, “Pyrazolyl guanidine F1F0-atpase inhibitors and therapeutic uses thereof” (Lycera Corporation, priority 2010, dated 2015).

The structures appear in SMILES notation. Where two headings read alike, the source gives them in different places.

The target of one experiment is T1, F1F0-ATPase (Bos taurus, UniProt P13621).
T1 construct: from tissue
Briefly: Inhibition of F1F0-ATPase activity in synthesizing ATP. It is filed as biochemical. The conditions noted are these: inhibition of ATP synthesis by F1F0-ATPase; read-out: ATP Syn IC50.

The next experiment relates to Ramos cells. Briefly: Cytotoxicity in Ramos cells. The conditions noted are these: cytotoxicity in Ramos cells, read-out: Ramos Cell EC50. In kind it is cell-based.

One may read the IC50 as the concentration at which inhibition is half-maximal. Usually EC50 stands for the concentration giving half of the maximal effect. With `O=C(/N=C(\Nc1cc(-c2ccc(F)cc2)[nH]n1)NC1CC1)c1ccc(F)cc1` [Compound A-193], at F1F0-ATPase, the IC50 was under 10 µM. For the same compound, the 50% effective concentration (EC50) with Ramos cells was over 10 µM.
Taken in the same sequence, the figures for `Cc1ccc(-c2cc(N/C(=N\C(=O)c3ccc(C(F)(F)F)cc3)NC3CC3)[nH]n2)cc1F` [Compound A-195] were under 10 µM and under 10 µM.
The corresponding values for `CC1(CN/C(=N/C(=O)c2ccc(F)cc2)Nc2cc(-c3ccc(F)cc3)n[nH]2)COC1` [Compound A-196] are under 10 µM and under 10 µM.
The corresponding values for `O=C(/N=C(\Nc1cc(-c2cc(F)cc(F)c2)n[nH]1)NC1COC1)c1ccc(F)c(F)c1` [Compound A-197] are under 10 µM and under 10 µM.
As for `O=C(/N=C(\Nc1cc(-c2cc(F)cc(F)c2)n[nH]1)NC1CC1)c1ccc(F)c(F)c1` [Compound A-198], the half-inhibitory concentration (IC50) at F1F0-ATPase was under 10 µM. Moreover, the 50% effective concentration (EC50) in the experiment on Ramos cells is under 10 µM.
As to `O=C(/N=C(\Nc1cc(-c2ccc(F)cc2)n[nH]1)NC1COC1)c1ccc(F)c(F)c1` [Compound A-199], the 50% inhibitory concentration (IC50) at F1F0-ATPase is under 10 µM. Also, the EC50 in the experiment on Ramos cells was over 10 µM.
Taken in the same sequence, the figures for `CC1(CN/C(=N/C(=O)c2ccc(F)c(F)c2)Nc2cc(-c3ccc(F)cc3)n[nH]2)COC1` [Compound A-200] were under 10 µM and over 10 µM.
Taken in the same sequence, the figures for `CC1(CN/C(=N/C(=O)c2cccc(F)c2)Nc2cc(-c3ccc(F)cc3)n[nH]2)CCCO1` (stereo not drawn) [Compound A-201] were under 10 µM and over 10 µM.
Taken in the same sequence, the figures for `O=C(/N=C(\Nc1cc(-c2ccc(F)cc2)n[nH]1)NC1CC1)c1cccc(F)c1` [Compound A-202] were under 10 µM and over 10 µM.
As for `CCC(C)N/C(=N/C(=O)c1ccc(F)cc1)Nc1cc(-c2ccc(C)c(F)c2)n[nH]1` (stereo not drawn) [Compound A-203], the IC50 at F1F0-ATPase is under 10 µM. The 50% effective concentration (EC50) with Ramos cells (Homo sapiens) was under 10 µM.
Take `COC[C@H](C)N/C(=N/C(=O)c1ccc(F)cc1)Nc1cc(-c2ccc(C)c(F)c2)n[nH]1` [Compound A-205]: the IC50 on F1F0-ATPase was under 10 µM. Further, the concentration for a half-maximal effect (EC50) in the experiment on Ramos cells (Homo sapiens) is under 10 µM.
`CCC(C)N/C(=N/C(=O)c1ccc(F)cc1)Nc1cc(-c2ccc(F)cc2)n[nH]1` (stereo not drawn) [Compound A-206]: the IC50 on F1F0-ATPase was under 10 µM. Also, in the experiment with Ramos cells (Homo sapiens), the EC50 was under 10 µM.
Take `CC(N/C(=N/C(=O)c1ccc(F)cc1)Nc1cc(-c2ccc(F)cc2)n[nH]1)C1CCCO1` (stereo not drawn) [Compound A-207]: the IC50 on F1F0-ATPase was over 10 µM. For the same compound, the concentration giving a half-maximal response (EC50) in the experiment on Ramos cells was over 10 µM.
On to `O=C(/N=C(/NCC1CCCCO1)Nc1cc(-c2ccc(F)cc2)n[nH]1)c1ccc(F)cc1` (stereo not drawn) [Compound A-208], for which the IC50 on F1F0-ATPase was over 10 µM. In the experiment with Ramos cells, the concentration giving a half-maximal response (EC50) is over 10 µM.
`CCC(C)N/C(=N/C(=O)c1ccc(F)cc1)Nc1cc(-c2ccc(Cl)cc2)n[nH]1` (stereo not drawn) [Compound A-209]: on F1F0-ATPase, the half-inhibitory concentration (IC50) is under 10 µM. For the same compound, in the experiment with Ramos cells (Homo sapiens), the EC50 was under 10 µM.
On to `CC1(CNC(=NC(=O)c2ccc(Cl)c(F)c2)Nc2cc(-c3ccc(F)cc3)n[nH]2)CCCO1` (stereo not drawn) [Compound A-210], for which the 50% inhibitory concentration (IC50) at F1F0-ATPase is under 10 µM. The concentration for a half-maximal effect (EC50) in the experiment with Ramos cells (Homo sapiens) is under 10 µM.
For `CC1(CNC(=NC(=O)c2ccc(F)c(F)c2)Nc2cc(-c3ccc(Cl)cc3)n[nH]2)CCCO1` (stereo not drawn) [Compound A-211], the IC50 on F1F0-ATPase is under 10 µM. Further, the EC50 with Ramos cells (Homo sapiens) is over 10 µM.
Taken in the same sequence, the figures for `CC1(CNC(=NC(=O)c2ccc(Cl)cc2)Nc2cc(-c3cc(F)cc(F)c3)n[nH]2)CCCO1` (stereo not drawn) [Compound A-212] were under 10 µM and under 10 µM.
`CCOC(C)CN/C(=N/C(=O)c1ccc(Cl)c(F)c1)Nc1cc(-c2ccc(F)cc2)n[nH]1` (stereo not drawn) [Compound A-213]: the IC50 on F1F0-ATPase is under 10 µM. Moreover, the half-maximal effective concentration (EC50) in the experiment with Ramos cells is under 10 µM.
For the compound `CCOC(C)CN/C(=N/C(=O)c1ccc(F)c(F)c1)Nc1cc(-c2ccc(Cl)cc2)n[nH]1` (stereo not drawn) [Compound A-214], the IC50 at F1F0-ATPase is under 10 µM. Also, in the experiment on Ramos cells, the concentration giving a half-maximal response (EC50) is under 10 µM.
In the case of `O=C(N=C(NCC1CCO1)Nc1cc(-c2ccc(F)cc2)n[nH]1)c1ccc(Cl)c(F)c1` (stereo not drawn) [Compound A-215], the IC50 at F1F0-ATPase is over 10 µM. The half-maximal effective concentration (EC50) in the experiment on Ramos cells (Homo sapiens) is over 10 µM.
Consider `CC(C)N/C(=N/C(=O)c1ccc(Cl)c(F)c1)Nc1cc(-c2ccc(F)cc2)n[nH]1` [Compound A-216], for which, on F1F0-ATPase, the IC50 is under 10 µM. Moreover, in the experiment with Ramos cells, the EC50 was under 10 µM.
Regarding `CCOCC(C)NC(=NC(=O)c1ccc(Cl)c(F)c1)Nc1cc(-c2ccc(F)cc2)n[nH]1` (stereo not drawn) [Compound A-217], the IC50 at F1F0-ATPase is under 10 µM. The EC50 with Ramos cells (Homo sapiens) was under 10 µM.
Regarding `COCC(C)NC(=NC(=O)c1ccc(Cl)c(F)c1)Nc1cc(-c2ccc(F)cc2)n[nH]1` (stereo not drawn) [Compound A-218], the IC50 at F1F0-ATPase is under 10 µM. Also, the EC50 in the experiment with Ramos cells is under 10 µM.
Consider `CCC(C)N/C(=N/C(=O)c1ccc(Cl)c(F)c1)Nc1cc(-c2ccc(F)cc2)n[nH]1` (stereo not drawn) [Compound A-219], for which the IC50 on F1F0-ATPase was under 10 µM. In addition, the EC50 in the experiment on Ramos cells is under 10 µM.
Turning to `CC(C)CN/C(=N/C(=O)c1ccc(Cl)c(F)c1)Nc1cc(-c2ccc(F)cc2)n[nH]1` [Compound A-220], on F1F0-ATPase, the IC50 was under 10 µM. In the experiment with Ramos cells, the EC50 was under 10 µM.
Consider `O=C(N=C(Nc1cc(-c2ccc(F)cc2)n[nH]1)NC1CCCC1)c1ccc(Cl)c(F)c1` [Compound A-221], for which the half-maximal inhibitory concentration (IC50) on F1F0-ATPase is under 10 µM. In the experiment on Ramos cells (Homo sapiens), the EC50 is under 10 µM.
Regarding `O=C(/N=C(\Nc1cc(-c2ccc(F)cc2)n[nH]1)NC1CCC1)c1ccc(Cl)c(F)c1` [Compound A-222], the IC50 at F1F0-ATPase is under 10 µM. The concentration giving a half-maximal response (EC50) in the experiment on Ramos cells is under 10 µM.
Regarding `O=C(N=C(NCC1CCO1)Nc1cc(-c2ccc(Cl)cc2)n[nH]1)c1ccc(F)c(F)c1` (stereo not drawn) [Compound A-223], the IC50 on F1F0-ATPase was under 10 µM. The half-maximal effective concentration (EC50) in the experiment with Ramos cells (Homo sapiens) is under 10 µM.
As to `O=C(N=C(Nc1cc(-c2ccc(Cl)cc2)n[nH]1)NC1CCC1)c1ccc(F)c(F)c1` [Compound A-224], the IC50 on F1F0-ATPase is under 10 µM. In addition, the concentration for a half-maximal effect (EC50) with Ramos cells (Homo sapiens) was over 10 µM.
Regarding `CCC(C)N/C(=N/C(=O)c1ccc(F)c(F)c1)Nc1cc(-c2ccc(Cl)cc2)n[nH]1` (stereo not drawn) [Compound A-225], the concentration for half-maximal inhibition (IC50) at F1F0-ATPase was under 10 µM. For the same compound, in the experiment on Ramos cells, the EC50 was under 10 µM.
In the case of `O=C(N=C(Nc1cc(-c2ccc(Cl)cc2)n[nH]1)NC1CCC1)c1ccc(Cl)c(F)c1` [Compound A-226], at F1F0-ATPase, the IC50 was under 10 µM. For the same compound, the concentration giving a half-maximal response (EC50) with Ramos cells (Homo sapiens) was under 10 µM.
As to `COCC(C)NC(=NC(=O)c1ccc(Cl)cc1)Nc1cc(-c2cc(F)cc(F)c2)n[nH]1` (stereo not drawn) [Compound A-228], the 50% inhibitory concentration (IC50) on F1F0-ATPase was under 10 µM. Besides, the 50% effective concentration (EC50) in the experiment on Ramos cells was over 10 µM.
Taken in the same sequence, the figures for `O=C(/N=C(\Nc1cc(-c2cc(F)cc(F)c2)n[nH]1)NC1CCCC1)c1ccc(Cl)cc1` [Compound A-229] were under 10 µM and under 10 µM.
In the case of `CC(C)N/C(=N/C(=O)c1ccc(Cl)cc1)Nc1cc(-c2cc(F)cc(F)c2)n[nH]1` [Compound A-230], the IC50 at F1F0-ATPase was under 10 µM. Besides, the EC50 in the experiment with Ramos cells was under 10 µM.
As for `O=C(N=C(Nc1cc(-c2cc(F)cc(F)c2)n[nH]1)NC1CCC1)c1ccc(Cl)cc1` [Compound A-231], the half-maximal inhibitory concentration (IC50) on F1F0-ATPase was under 10 µM. In addition, the concentration for a half-maximal effect (EC50) with Ramos cells (Homo sapiens) is under 10 µM.
Consider `CC(C)(C)NC(=NC(=O)c1ccc(Cl)cc1)Nc1cc(-c2cc(F)cc(F)c2)n[nH]1` [Compound A-232], for which, on F1F0-ATPase, the IC50 is under 10 µM. The half-maximal effective concentration (EC50) with Ramos cells (Homo sapiens) was under 10 µM.
Turning to `CC(C)CNC(=NC(=O)c1ccc(Cl)cc1)Nc1cc(-c2cc(F)cc(F)c2)n[nH]1` [Compound A-233], the IC50 at F1F0-ATPase is under 10 µM. Besides, the 50% effective concentration (EC50) in the experiment with Ramos cells (Homo sapiens) was under 10 µM.
For `CCC(C)N/C(=N/C(=O)c1ccc(Cl)cc1)Nc1cc(-c2cc(F)cc(F)c2)n[nH]1` (stereo not drawn) [Compound A-234], on F1F0-ATPase, the IC50 was under 10 µM. Besides, the EC50 with Ramos cells is under 10 µM.
